From patent US20130018062A1, “Pain therapy with metabolism blocked antifolates” (priority 2011, published 2013)

Key:
C-Reactive Protein (CRP) = assay: Plasma CRP levels of patients on therapy with M-Trex for Rheumatoid Arthritis (Example-2); assay type: in vivo, human; conditions: arthritic patients taking M-Trex, clinical study by Castaneda and Nair
Excerpt: Coronary Heart Disease (CHD), Cardio-vascular diseases (CVD) and Stroke are of the same generic species by virtue of Inflammation being the common underlying cause of their occurrence. In fact an article by the American Heart Association entitled “Inflammation, Heart Disease and Stroke. The role of C-Reactive Protein” stressed that markers of Inflammation are more accurate and reliable predictive factors than total cholesterol levels in humans. [www.americanheart.org/presenter.jhtml?presenter=4648]. The most accurate predictive factor for the incidence of CHD, CVD and stroke is elevated levels of C-Reactive Protein (CRP).

[1] = Toxicity (maximum tolerated dose, weight loss) in nude mice bearing HCT-8 xenograft; assay type: in vivo; conditions: i.v. push daily × 5 in nude mice
A549/ATCC (NSCLC) = assay: Growth inhibition of human tumor cells in culture (NCI); assay type: cell-based
Excerpt: (§1) The preceding data collected at the National Cancer Institute summarize the ability of M-Trex to inhibit 50% of the growth of selected tumor cells in culture. The values are expressed as Log10 GI50 values all of which are lower than 10^−8M. In the same table a comparison is made of the respective values of TGI (Total Growth Inhibition) for M-Trex and MTX. […] In addition, the Log10 GI50 values of M-Trex was lower than −8.00 for the following cell lines: NSCLC, A549/ATCC and NCI H23; Colon Cancer, HCT 116, HCT 29 and SW 620; CNS Cancer, SF 268; Melanoma M 14 and UACC 62; Ovarian Cancer, OVCAR-8; Renal Cancer, ACHN, CAKI-1, SN 12C, and UO 31; Prostate Cancer, PC 3 and Breast cancer, MDA-MB-435 and MDA-N. The MG_MID value of MTX for all 49 human tumor cell lines evaluated at NCI-DTP program was −7.05. […] The tumors and sarcomas are solid while leukemia and lymphoma are liquid tumors.

ACHN (Renal Cancer) = assay: as above; assay type: cell-based
Excerpt: as §1

CAKI-1 (Renal Cancer) = assay: as above; assay type: cell-based
Excerpt: as §1

CCRF-CEM (Leukemia) = assay: as above; assay type: cell-based
Excerpt: as §1

HCT 116 (Colon Cancer) = assay: as above; assay type: cell-based
Excerpt: as §1

HCT 29 (Colon Cancer) = assay: as above; assay type: cell-based
Excerpt: as §1

K562 (Leukemia) = assay: as above; assay type: cell-based; conditions: logarithmic value
Excerpt: as §1

M 14 (Melanoma) = assay: as above; assay type: cell-based
Excerpt: as §1

MCF-7 (Breast Cancer) = assay: as above; assay type: cell-based; conditions: logarithmic value
Excerpt: as §1

[2] = test system: MCF7-ADR-RES (Breast Cancer); assay: as above; assay type: cell-based
Excerpt: as §1

[3] = test system: MDA-MB-435 (Breast cancer); assay: as above; assay type: cell-based
Excerpt: as §1

MDA-N (Breast cancer) = assay: as above; assay type: cell-based
Excerpt: as §1

MOLT-4 (Leukemia) = assay: as above; assay type: cell-based; conditions: logarithmic value
Excerpt: as §1

NCI H23 (NSCLC) = assay: as above; assay type: cell-based
Excerpt: as §1

OVCAR-8 (Ovarian Cancer) = assay: as above; assay type: cell-based
Excerpt: as §1

PC 3 (Prostate Cancer) = assay: as above; assay type: cell-based
Excerpt: as §1

RPMI 8226 (Leukemia) = assay: as above; assay type: cell-based; conditions: logarithmic value
Excerpt: as §1

SF 268 (CNS Cancer) = assay: as above; assay type: cell-based
Excerpt: as §1

SF 539 (CNS Cancer) = assay: as above; assay type: cell-based; conditions: logarithmic value
Excerpt: as §1

SN 12C (Renal Cancer) = assay: as above; assay type: cell-based
Excerpt: as §1

SR (Leukemia) = assay: as above; assay type: cell-based; conditions: logarithmic value
Excerpt: as §1

SW 620 (Colon Cancer) = assay: as above; assay type: cell-based
Excerpt: as §1

UACC 62 (Melanoma) = assay: as above; assay type: cell-based
Excerpt: as §1

UO 31 (Renal Cancer) = assay: as above; assay type: cell-based
Excerpt: as §1

Allergic Rabbits = conditions: allergen induced; cited from earlier work

SMILES: C=C(CC(NC(=O)c1ccc(CCc2ccc3nc(N)nc(N)c3c2)cc1)C(=O)O)C(=O)O (stereo not shown) [M-Trex, 4′-methylene-5,8-10-trideazaaminopterin]
- Change of CRP levels (in words) (C-Reactive Protein (CRP)): significant and consistent reduction
- Maximum Tolerated dose [1]: M-Trex (4.0 mg/kg/day)
- Log10 GI50 (A549/ATCC (NSCLC)): lower than −8.00
- Log10 GI50 (ACHN (Renal Cancer)): lower than −8.00
- Log10 GI50 (CAKI-1 (Renal Cancer)): lower than −8.00
- TGI (Total Growth Inhibition) (CCRF-CEM (Leukemia); logarithmic value): <−8.00
- Log10 GI50 (CCRF-CEM (Leukemia); value is Log10 of GI50): <−8.00 M
- Log10 GI50 (HCT 116 (Colon Cancer)): lower than −8.00
- Log10 GI50 (HCT 29 (Colon Cancer)): lower than −8.00
- TGI (Total Growth Inhibition) (K562 (Leukemia)): <−8.00
- Log10 GI50 (M 14 (Melanoma)): lower than −8.00
- TGI (Total Growth Inhibition) (MCF-7 (Breast Cancer)): −6.32
- TGI (Total Growth Inhibition) ([2]; logarithmic value): −7.26
- Log10 GI50 ([2]; value is Log10 of GI50): <−8.00 M
- Log10 GI50 [3]: lower than −8.00
- Log10 GI50 (MDA-N (Breast cancer)): lower than −8.00
- TGI (Total Growth Inhibition) (MOLT-4 (Leukemia)): −7.40
- Log10 GI50 (NCI H23 (NSCLC)): lower than −8.00
- Log10 GI50 (OVCAR-8 (Ovarian Cancer)): lower than −8.00
- Log10 GI50 (PC 3 (Prostate Cancer)): lower than −8.00
- TGI (Total Growth Inhibition) (RPMI 8226 (Leukemia)): −7.44
- Log10 GI50 (SF 268 (CNS Cancer)): lower than −8.00
- TGI (Total Growth Inhibition) (SF 539 (CNS Cancer)): −6.3
- Log10 GI50 (SN 12C (Renal Cancer)): lower than −8.00
- TGI (Total Growth Inhibition) (SR (Leukemia)): <−8.00
- Log10 GI50 (SW 620 (Colon Cancer)): lower than −8.00
- Log10 GI50 (UACC 62 (Melanoma)): lower than −8.00
- Log10 GI50 (UO 31 (Renal Cancer)): lower than −8.00
- Asthmatic Response Early (Allergic Rabbits): 52
- Asthmatic Response Late (Allergic Rabbits): 58
- BHR (Bronchial Hyper-Responsiveness) (Allergic Rabbits): 47
